According to patent publication US12404232B2, “Compounds and compositions for intracellular delivery of therapeutic agents” (ModernaTX, Inc., priority 2015, dated 2025):

Tests used:
mice [1] = experiment: Cytokine induction (IL-6, IP-10) in mice after intravenous administration; assay type: in vivo; set-up: IL-6 / IP-10: unit not given here; conditions: 0.5 mpk, 6 hours
Excerpt: The introduction of foreign material into a mammalian body induces an innate immune response that promotes cytokine production. Such immune responses to, for example, nanoparticle compositions including therapeutic and/or prophylactics, are undesirable. The induction of certain cytokines is thus measured to evaluate the […] of nanoparticle compositions. The concentrations of various cytokines in mice upon intravenous administration of nanoparticle compositions presented in Table 1A at a dosage of 0.5 mpk was measured at 6 hours. The standard MC3 formulation and a PBS control were also tested. As is evident in Table 7, IL-6 induction was highest for compositions including Compounds 1, 3, 9, 19, and 26, while IP-10 induction was highest for compositions including Compounds 3, 4, 7, 20, and 26. IL-6 induction was lowest for compositions including Compounds 4, 11, 12, and 28. IP-10 induction was lowest for compositions including Compounds 10, 11, 12, 13, 15, 17, and 18.
The expression of hEPO and cytokine induction in mice intravenously administered a nanoparticle composition at a dose of 0.5 mpk were measured at 3, 6, and 24 hours. […] The expression of hEPO in mice intramuscularly administered a nanoparticle composition from Table 1B at a dose of 0.01 mpk were measured at 3, 6, and 24 hours. […] (see also FIG. 9.)

mice [2] = experiment: Luc expression (total flux) after intramuscular administration; assay type: in vivo; conditions: 6 hours after intramuscular administration, Luc mRNA and H10 mRNA
Method: The numbers 1-7 in this figure correspond to MC3, Compounds 168-170, and 173-175 respectively.
In order to monitor how effectively various nanoparticle compositions deliver therapeutic and/or prophylactics to targeted cells, different nanoparticle compositions including a particular therapeutic and/or prophylactic (for example, a modified or naturally occurring RNA such as an mRNA) are prepared and administered to rodent populations. Mice are intravenously, intramuscularly, intraarterially, or intratumorally administered a single dose including a nanoparticle composition with a formulation such as those provided in Example 3. In some instances, mice may be made to inhale doses. Dose sizes may range from 0.001 mg/kg to 10 mg/kg, where 10 mg/kg describes a dose including 10 mg of a therapeutic and/or prophylactic in a nanoparticle composition for each 1 kg of body mass of the mouse. A control composition including PBS may also be employed.
The total flux (measured by area under the curve, AUC) induced by administration of a formulation including a given lipid relative to that induced by administration of a formulation including MC3 was also measured for several lipids.
Sample formulations including both modified luciferase (Luc) mRNA and H10 mRNA were prepared and administered intramuscularly and the resulting expression and immunogenicity were evaluated simultaneously. Formulations including compounds according to Formula (I), (IA), (II), (IIa), (IIb), (IIc), (IId) or (IIe) were prepared and administered at doses of 0.001 and 0.01 mpk (e.g., doses of 0.0005 mpk of a formulation including Luc mRNA and a formulation including H10 mRNA or doses of 0.005 mpk of a formulation including Luc mRNA and a formulation including H10 mRNA).
Sample formulations including modified luciferase (Luc) mRNA prepared and administered intramuscularly and the resulting expression and immunogenicity were evaluated simultaneously. Formulations including compounds according to Formula (I), (IA), (II), (IIa), (IIb), (IIc), (IId) or (IIe) were prepared and administered at dose of […] 0.01 mpk.
The fluxes measured upon intravenous and intramuscular administration are compared in Table 6. Fluxes are presented as fold increase over that measured for MC3 formulations.

| IL-6 (mice [1]) | IP-10 (mice [1]) | SMILES | Total flux (p/s) 0.001 mpk Dose (mice [2]) [p/s] | Total flux (p/s) 0.01 mpk Dose (mice [2]) [p/s] |
| --- | --- | --- | --- | --- |
| 28.69 | 887.91 | CCCCC/C=C\C/C=C\CCCCCCCCN(CCO)CCCCCCCC(=O)OCCCCCCCCC [Compound 136, Nonyl 8-((2-hydroxyethyl)((9Z,12Z)-octadeca-9,12-dien-1-yl)amino)octanoate] |  |  |
| 23.57 | 153.36 | CCCCCC/C=C\COC(=O)CCCCCCCN(CCO)CCCCCCCC(=O)OC/C=C\CCCCCC [Compound 139, Di((Z)-non-2-en-1-yl) 8,8′-((2-hydroxyethyl)azanediyl)dioctanoate] |  |  |
| 130.82 | 234.35 | CCCCCCCCCCCCN(CCO)CCCCCCCCCCCC(=O)OC [Compound 137, Methyl 12-(dodecyl(2-hydroxyethyl)amino)dodecanoate] | 7.57E+04 | 8.09E+04 |
| 319.46 | 4220.55 | CCCCCCCCCOC(=O)CCCCCCCN(CCO)CCCCCCCC(=O)N(CCCCCCCC)CCCCCCCC [Compound 144, Nonyl 8-((8-(dioctylamino)-8-oxooctyl)(2-hydroxyethyl)amino)octanoate] | 2.72E+06 | 2.18E+07 |
|  | 283.13 | CCCCCCCCC(CCCCCCCC)OC(=O)CCCCCCCN(CCO)CCCCCCCC(=O)OCC1CC1CCCCCC (stereo not shown) [Compound 28, Heptadecan-9-yl 8-((8-((2-hexylcyclopropyl)methoxy)-8-oxooctyl)(2-hydroxyethyl)amino)octanoate] | 6.73E+05 | 5.56E+06 |
| 23.38 | 172.56 | CCCCCCCCCOC(=O)CCCCCCCN(CCO)CCCCCCCC(=O)OCCCCCCCCC [Compound 138, Dinonyl 8,8′-((2-hydroxyethyl)azanediyl)dioctanoate] | 2.72E+05 | 1.19E+06 |
| 161.07 | 345.56 | CCCCCCCCCOC(=O)CCCCCCCN(CCO)CCCCCC(=O)OC(CCCCCCCC)CCCCCCCC [Compound 27, Nonyl 8-((6-(heptadecan-9-yloxy)-6-oxohexyl)(2-hydroxyethyl)amino) octanoate] | 2.55E+06 | 3.17E+07 |
| 69.54 | 1362.81 | CCCCCCCCC(CCCCCCCC)OC(=O)CCCCCCCN(CCO)CCCCCCCC(=O)OC(CCCCCCCC)CCCCCCCC [Compound 29, Di(heptadecan-9-yl) 8,8′-((2-hydroxyethyl)azanediyl)dioctanoate] | 7.64E+05 | 1.12E+07 |
| 90.54 | 976.50 | CCCCCCCCCOC(=O)CCCCCCCN(CCCCCCCC(=O)OC(CCCCCCCC)CCCCCCCC)C1CCCCC1O (stereo not shown) [Compound 22, Heptadecan-9-yl 8-((2-hydroxycyclohexyl)(8-(nonyloxy)-8-oxooctyl)amino)octanoate] |  |  |
| 327.15 | 1072.04 | CCCCCCCCCCCOC(=O)CCCCCN(CCO)CCCCCC(=O)OCCCCCCCCCCC [Compound 141, Diundecyl 6,6′-((2-hydroxyethyl)azanediyl)dihexanoate] |  |  |

Second part, the molecule before the results:

| SMILES | IL-6 (mice [1]) | IP-10 (mice [1]) | Total flux (p/s) 0.001 mpk Dose (mice [2]) [p/s] | Total flux (p/s) 0.01 mpk Dose (mice [2]) [p/s] |
| --- | --- | --- | --- | --- |
| CCCCCCCCCOC(=O)CCCCCCCN(CCCCCCCC(=O)OC(CCCCCCCC)CCCCCCCC)CC(C)O (stereo not shown) [Compound 10, Heptadecan-9-yl 8-((2-hydroxypropyl)(8-(nonyloxy)-8-oxooctyl)amino) octanoate] | 88.81 |  |  |  |
| CCCCCCCCCOC(=O)CCCCCCCN(CCCCCCCC(=O)OC(CCCCCCCC)CCCCCCCC)CCN(C)C [Compound 14, Heptadecan-9-yl 8-((2-(dimethylamino)ethyl)(8-(nonyloxy)-8-oxooctyl)amino)octanoate] | 75.29 | 621.49 |  |  |
| CCCCCCCCCOC(=O)CCCCCCCN(CCO)CCCCCCCC(=O)OC(CCCC)CCCC [Compound 57, nonan-5-yl 8-((2-hydroxyethyl)(8-(nonyloxy)-8-oxooctyl)amino) octanoate] |  |  | 1.16E+05 | 2.23E+05 |
| CCCCCCCCCOC(=O)CCCCCCCN(CCO)CCCCCCCC(=O)OC(CCCCCC)CCCCCCCC (stereo not shown) [Compound 32, nonyl 8-((2-hydroxyethyl)(8-oxo-8-(pentadecan-7-yloxy)octyl)amino) octanoate] |  |  | 7.37E+05 | 1.03E+07 |
| CCCCCCCCCOC(=O)CCCCCCCN(CCCCCCCC(=O)OC(CCCCCCCC)CCCCCCCC)CCOCCN(C)C [Compound 17, Heptadecan-9-yl 8-((2-(2-(dimethylamino)ethoxy)ethyl) (8-(nonyloxy)-8-oxooctyl)amino)octanoate] | 138.43 |  |  |  |
| CCCCCCCCCOC(=O)CCCCCCCN(CCCCCCCC(=O)OC(CCCCCCCC)CCCCCCCC)CC(O)CC (stereo not shown) [Compound 13, Heptadecan-9-yl 8-((2-hydroxybutyl)(8-(nonyloxy)-8-oxooctyl)amino) octanoate] | 29.07 |  |  |  |
| CCCCCCCCCN(CCCO)CCCCCCCC(=O)OC(CCCCCCCC)CCCCCCCC [Compound 7, Heptadecan-9-yl 8-((3-hydroxypropyl)(nonyl)amino)octanoate] | 116.35 |  | 3.65E+06 | 7.48E+07 |
| CCCCCCCCC(CCCCCCCC)OC(=O)CCCCCCCN(CCO)CCCCCC [Compound 5, Heptadecan-9-yl 8-(hexyl(2-hydroxyethyl)amino)octanoate] | 94.07 | 487.16 | 9.84E+05 | 3.55E+06 |
| CCCCCCCCCOC(=O)CCCCCCCN(CCCCCCCC(=O)OC(CCCCCCCC)CCCCCCCC)CCCOC [Compound 16, Heptadecan-9-yl 8-((3-methoxypropyl)(8-(nonyloxy)-8-oxooctyl)amino) octanoate] | 32.01 | 206.75 |  |  |
| CCCCCCCCCOC(=O)CCCCCCCN(CCCCCCCC(=O)OC(CCCCCCCC)CCCCCCCC)C[C@H](C)O [Compound 12, Heptadecan-9-yl (S)-8-((2-hydroxypropyl)(8-(nonyloxy)-8-oxooctyl)amino)octanoate] |  |  | 8.02E+04 | 8.90E+05 |
| CCCCCCCCCN(CCCCCCCC(=O)OC(CCCCCCCC)CCCCCCCC)CCCn1ccnc1 [Compound 8, Heptadecan-9-yl 8-((3-(1H-imidazol-1-yl)propyl)(nonyl)amino)octanoate] |  |  | 7.81E+05 | 3.32E+06 |
| CCCCCCCCCOC(=O)CCCCCCCN(CCCCCCCC(=O)OC(CCCCCCCC)CCCCCCCC)CCOC [Compound 15, Heptadecan-9-yl 8-((2-methoxyethyl)(8-(nonyloxy)-8-oxooctyl)amino)octanoate] | 64.65 |  |  |  |
| CCCCCCCCCCCCCCCCCCN(CCO)CCCCCCCC(=O)OC(CCCCCCCC)CCCCCCCC [Compound 1, Heptadecan-9-yl 8-((2-hydroxyethyl)(octadecyl)amino)octanoate] |  | 687.14 |  |  |
| CCCCCCCCCOC(=O)CCCCCCCN(CCO)CCCCCCCC(=O)OC(CC)CCCCCCCC (stereo not shown) [Compound 35, nonyl 8-((2-hydroxyethyl)(8-oxo-8-(undecan-3-yloxy)octyl)amino) octanoate] |  |  | 2.45E+06 | 8.12E+06 |
| CCCCCCCCCOC(=O)CCCCCCCN(CCCCCCCC(=O)OC(CCCCCCCC)CCCCCCCC)CCOC(C)=O [Compound 9, Heptadecan-9-yl 8-((2-acetoxyethyl)(8-(nonyloxy)-8-oxooctyl)amino) octanoate] |  | 366.53 |  |  |
